Test results as given in US7582655B2, “Antineoplastic compounds” (University of Saskatchewan, priority 2005, dated 2009).
Like-named read-outs stand apart in the source and are kept apart here.

Key:
[1] = system: human squamous cell carcinomas HSC-4; experiment: Cytotoxicity CC50, MTT assay, HSC-4
Description: (§1) In addition, the compounds were evaluated against human squamous cell carcinomas (HSC-2 and HSC-4) and human promyelocytic leukemia neoplasms (HL-60) and compared with normal cells, i.e. human gingival fibroblasts (HGF), human pulp cells (HPC) and human periodontal ligament fibroblasts (HPLF).
(§2) MTT stands for 3-(4,5-dimethylthiazol-2-yl)-2,5-diphenyltetrazolium bromide). The cells were incubated with varying concentrations of the compounds along with untreated cells for 24 h and the absorbance at 540 nm measured. In the case of the HL-60 assay, the trypan blue exclusion method was followed and cell viability was determined using a haemocytometer. The CC50 values were obtained from dose-response curves (Sakagami, H.; Satoh, K.; Ohata, H.; Takahashi, H.; Yoshida, H.; Iida, M.; Kuribayashi, N.; Sakagami, T.; Momose, K.; Takeda, M. Anticancer Res. 1996, 16, 2635-2644). The general methods used in culturing the cells employed in these cytotoxicity experiments have been described previously (Kawase, M.; Sakagami, H.; Motohashi, N.; Hauer, H.; Chatterjee, S. S.; Spengler, G.; Vigyikanne, A. V.; Molnár, A.; Molnár, J. In Vivo 2005, 19, 705-712; and Takeuchi, R.; Hoshijima, H.; Onuki, N.; Nagasaka, H.; Chowdhury, S. A.; Kawase, M.; Sakagami, H. Anticancer Res. 2005, 25, 4037-4042). In brief, the malignant cells were obtained from Professor Nagumo, Showa University, Japan. The HGF, HPC and HPLF cells were prepared from human periodontal tissue after obtaining informed consent according to the guidelines of Meikai University Ethics Committee, Japan (No. 0206). Since normal cells have a short lifespan, cells at the 3-7 population doubling time were used. With the exception of the HL-60 neoplasm, the cells were cultured in DMEM containing heat-inactivated FBS (10%) at 37° C. in a humidified carbon dioxide atmosphere and subcultured by trypsinization. The HL-60 cells were cultured in a similar fashion except that RPMI 1640 media was employed.

[2] = system: human gingival fibroblasts (HGF); experiment: Cytotoxicity CC50, MTT assay, normal HGF cells
Description: as §1, §2

KM 12 = experiment: Human tumour cell line panel, colon cancer KM 12; type: cell-based
Description: (§3) In addition, both 5-fluorouracil and melphalan were evaluated towards 57 cell lines. […] MG MID is the average of the potencies of the compound to approximately 50 neoplastic cell lines.

human pulp cells (HPC) = experiment: Cytotoxicity CC50, MTT assay, normal HPC cells
Description: as §1, §2

HCC 2998 = experiment: Human tumour cell line panel, colon cancer HCC 2998; type: cell-based
Description: as §3

[3] = system: human squamous cell carcinomas HSC-2; experiment: Cytotoxicity CC50, MTT assay, HSC-2
Description: as §1, §2

RPMI 8226 = experiment: Human tumour cell line panel, leukemic RPMI 8226; type: cell-based
Description: as §3

SR = experiment: Human tumour cell line panel, leukemic SR; type: cell-based
Description: as §3

K 562 = experiment: Human tumour cell line panel, leukemic K 562; type: cell-based
Description: as §3

SW 620 = experiment: Human tumour cell line panel, colon cancer SW 620; type: cell-based
Description: as §3

HL 60 = experiment: Human tumour cell line panel, leukemic HL 60; type: cell-based
Description: as §3

[4] = system: HSC-2, HSC-4 and HL-60 malignant cells; experiment: Average CC50 for malignant cells; details: average CC50 for HSC-2, HSC-4 and HL-60 malignant cells
Description: as §1, §2

COLO 205 = experiment: Human tumour cell line panel, colon cancer COLO 205; type: cell-based
Description: as §3

[5] = system: human periodontal ligament fibroblasts (HPLF); experiment: Cytotoxicity CC50, MTT assay, normal HPLF cells
Description: as §1, §2

HCT 116 = experiment: Human tumour cell line panel, colon cancer HCT 116; type: cell-based
Description: as §3

[6] = system: human promyelocytic leukemia HL-60; experiment: Cytotoxicity CC50, trypan blue exclusion, HL-60
Description: as §1, §2

human tumour cell lines = experiment: Panel of human tumour cell lines, all cell lines (mean graph midpoint); type: cell-based
Description: A number of compounds of the invention were further assessed against numerous human malignant cell lines. An average of 49 cell lines from nine different neoplastic diseases, namely leukemia, melanoma, non-small cell lung, colon, central nervous system, ovarian, renal, prostate, and breast cancers were employed.
as §3

HCT 15 = experiment: Human tumour cell line panel, colon cancer HCT 15; type: cell-based; details: read-out: Colon cancer cells, IC50(μM) HCT 15
Description: as §3

[7] = read-out: CC50(μM) HGF, normal cells, 24 h, MTT
[8] = read-out: CC50(μM) HPC, normal cells, 24 h, MTT
[9] = read-out: CC50(μM) HPLF, normal cells, 24 h, MTT
[10] = 48 h; read-out: Colon cancer cells, IC50(μM) KM 12
[11] = 48 h; read-out: Leukemic cells, IC50(μM) RPMI 8226
[12] = 48 h; read-out: Leukemic cells, IC50(μM) K 562
[13] = 48 h; read-out: Colon cancer cells, IC50(μM) SW 620
[14] = 48 h; read-out: Leukemic cells, IC50(μM) HL 60
[15] = 48 h; read-out: Colon cancer cells, IC50(μM) COLO 205
[16] = 48 h; read-out: Colon cancer cells, IC50(μM) HCT 116
[17] = mean graph midpoint, average of 49 (38-59) human tumour cell lines, 48 h incubation, read-out: All cell lines IC50
[18] = read-out: CC50(μM) HSC-4, 24 h, MTT, average of two determinations
[19] = read-out: Colon cancer cells, IC50(μM) KM 12
[20] = read-out: CC50(μM) HSC-2, 24 h, MTT, average of two determinations
[21] = read-out: CC50(μM) HL-60, 24 h, trypan blue exclusion, average of two determinations
[22] = 48 h; read-out: Leukemic cells, IC50(μM) SR
[23] = 48 h; read-out: Colon cancer cells, IC50(μM) HCC 2998

Compound	CC50 [2, 7]	CC50 (human pulp cells (HPC); [8])	CC50(μM) ave [4]	CC50 [5, 9]	IC50 (RPMI 8226; [11])	IC50 (K 562; [12])	IC50 (HCT 15; 48 h)	IC50 (SW 620; [13])	IC50 (HL 60; [14])	IC50 (COLO 205; [15])	IC50 (HCT 116; [16])	IC50 (human tumour cell lines; [17])	CC50 [1, 18]	IC50 (KM 12; [19])	CC50 [3, 20]	CC50 [6, 21]	further results
N[C@@H](Cc1ccc(N(CCCl)CCCl)cc1)C(=O)O [Melphalan, reference compound]	> 200 µM	> 200 µM	40.7 µM	> 200 µM													CC50 ([1]; Homo sapiens, HSC-4, 24 h, read-out: CC50(μM) HSC-4): 81 µM; IC50 (KM 12; Homo sapiens, KM12, 48 h, read-out: Colon cancer cells, IC50(μM) KM 12): 43.7 µM; IC50 (HCC 2998; Homo sapiens, HCC 2998, 48 h, read-out: Colon cancer cells, IC50(μM) HCC 2998): 41.7 µM; CC50 ([3]; Homo sapiens, HSC-2, 24 h, read-out: CC50(μM) HSC-2): 35 µM; IC50 (RPMI 8226; Homo sapiens, RPMI-8226, 48 h, read-out: Leukemic cells, IC50(μM) RPMI 8226): 66.1 µM; IC50 (SR; Homo sapiens, SR, 48 h, read-out: Leukemic cells, IC50(μM) SR): 1.86 µM; IC50 (K 562; Homo sapiens, K562, 48 h, read-out: Leukemic cells, IC50(μM) K 562): 43.7 µM; IC50 (SW 620; Homo sapiens, SW-620, 48 h, read-out: Colon cancer cells, IC50(μM) SW 620): 38.9 µM; IC50 (HL 60; Homo sapiens, HL-60, 48 h, read-out: Leukemic cells, IC50(μM) HL 60): 2.04 µM; IC50 (COLO 205; Homo sapiens, COLO 205, 48 h, read-out: Colon cancer cells, IC50(μM) COLO 205): 66.1 µM; IC50 (HCT 116; Homo sapiens, HCT-116, 48 h, read-out: Colon cancer cells, IC50(μM) HCT 116): 30.2 µM; CC50 ([6]; Homo sapiens, HL-60, 24 h, read-out: CC50(μM) HL-60): 6 µM; IC50 (human tumour cell lines; Homo sapiens, 48 h, read-out: All cell lines IC50(μM)): 26.9 µM
Cc1ccc(C=C2CN(C(=O)c3ccc(OCCN4CCCCC4)cc3)CC(=Cc3ccc(C)cc3)C2=O)cc1.Cc1ccc(C=C2CN(C(=O)c3ccc(OCCN4CCCCC4)cc3)CC(=Cc3ccc(C)cc3)C2=O)cc1.Cl.Cl.O [Compound 5d, 3,5-bis(4-Methylphenylmethylene)-1-[4-{1-piperidinyl)ethoxy}phenylcarbonyl]-4-piperidone hydrochloride hemihydrate]					0.123 µM	0.589 µM	1.07 µM	0.339 µM	0.933 µM	6.92 µM	1.58 µM	1.38 µM					CC50 [1]: 4.1 µM; CC50 [2]: 6 µM; IC50 (KM 12; [10]): 0.148 µM; CC50 (human pulp cells (HPC)): 15 µM; CC50 [3]: 2.9 µM; CC50 [5]: 5.5 µM; CC50 [6]: 2.3 µM
1-[4-{2-(4-Morpholinyl)ethoxy}phenylcarbonyl]-3,5-bis(phenylmethylene)-4-piperidone hydrochloride hemihydrate [Compound 6a]	83 µM	95 µM	2.0 µM	30 µM	0.123 µM	0.158 µM	1.45 µM	0.191 µM	0.562 µM	22.9 µM	0.339 µM	> 2.63 µM	2.4 µM	0.129 µM	2.4 µM	1.2 µM	
O=c1[nH]cc(F)c(=O)[nH]1 [5-Fluorouracil, 5-fluorouracil, reference compound]												> 29.5 µM					IC50 (KM 12; Homo sapiens, KM12, 48 h; read-out: Colon cancer cells, IC50(μM) KM 12): 7.94 µM; IC50 (HCC 2998; Homo sapiens, HCC 2998, 48 h; read-out: Colon cancer cells, IC50(μM) HCC 2998): 5.75 µM; IC50 (RPMI 8226; Homo sapiens, RPMI-8226, 48 h; read-out: Leukemic cells, IC50(μM) RPMI 8226): 3.55 µM; IC50 (SR; Homo sapiens, SR, 48 h; read-out: Leukemic cells, IC50(μM) SR): 60.3 µM; IC50 (K 562; Homo sapiens, K562, 48 h; read-out: Leukemic cells, IC50(μM) K 562): 126 µM; IC50 (HCT 15; Homo sapiens, HCT-15, 48 h): 6.61 µM; IC50 (SW 620; Homo sapiens, SW-620, 48 h; read-out: Colon cancer cells, IC50(μM) SW 620): 18.6 µM; IC50 (HL 60; Homo sapiens, HL-60, 48 h; read-out: Leukemic cells, IC50(μM) HL 60): 85.1 µM; IC50 (COLO 205; Homo sapiens, COLO 205, 48 h; read-out: Colon cancer cells, IC50(μM) COLO 205): 3.39 µM; IC50 (HCT 116; Homo sapiens, HCT-116, 48 h; read-out: Colon cancer cells, IC50(μM) HCT 116): 2.04 µM; S.I. (selectivity index) (human tumour cell lines; ratio of the IC50 figures for the least and most sensitive cell lines): >4365
3,5-bis(4-Methyl phenylmethylene)-1-[4-{2-(4-morpholinyl)ethoxy}phenylcarbonyl]-4-piperidone hydrochloride hemihydrate [Compound 6d]	10 µM	49 µM	1.6 µM	12 µM	0.115 µM	0.275 µM	0.832 µM	1.02 µM	1.1 µM	1.15 µM	2.45 µM	< 0.708 µM	2 µM	1.12 µM	1.6 µM	1.2 µM	IC50 (SR; [22]): 0.245 µM
Cl.O=C1C(=Cc2ccc(Cl)cc2)CN(C(=O)c2ccc(OCCN3CCOCC3)cc2)CC1=Cc1ccc(Cl)cc1 [Compound 6b, 3,5-bis(4-Chlorophenylmethylene)-1-[4-{2-(4-morpholinyl)ethoxy}phenylcarbonyl-4-piperidone hydrochloride]					0.132 µM	6.76 µM	2.19 µM	1.45 µM	5.5 µM		7.25 µM	< 0.562 µM					CC50 [1]: 18 µM; CC50 [2]: 400 µM; IC50 (KM 12; [10]): 2.29 µM; CC50 (human pulp cells (HPC)): > 400 µM; IC50 (HCC 2998; [23]): < 0.005 µM; CC50 [3]: 71 µM; CC50 [5]: 360 µM; CC50 [6]: 36 µM
1-[4-(2-Diethylaminoethoxy)phenylcarbonyl]-3,5-bis(phenylmethylene)-4-piperidone hydrochloride hemihydrate [Compound 4a]	4.2 µM	12 µM	1.9 µM	6 µM	< 0.01 µM	0.043 µM	1.17 µM	1.35 µM		2.63 µM	< 0.01 µM	< 1.38 µM	2 µM	1.74 µM	3.1 µM	0.61 µM	
3,5-bis(4-Chlorophenylmethylene)-1-[4-(2-dimethylaminoethoxy)phenyl-carbonyl]-4-piperidone hydrochloride hemihydrate [Compound 3b]	23 µM	11 µM	1.9 µM	4.3 µM	0.098 µM	0.331 µM	0.295 µM	0.209 µM	1.41 µM	1.7 µM	6.03 µM	1.91 µM	1.8 µM	1.74 µM	2.3 µM	1.7 µM	IC50 (HCC 2998; [23]): 0.263 µM; IC50 (SR; [22]): 0.126 µM
